Measured values from PubChem BioAssay (NCI).
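Briefly, cells in 96-well plates were exposed to five compound concentrations for 48 h, and endpoints were estimated by linear interpolation. TGI marks complete inhibition of growth.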

Legend:
Assay in all cases: growth of human tumour cells (NCI), 48 h
K-562 leukemia = system: K-562 leukemia
HCC-2998 colon = system: HCC-2998 colon
COLO 205 colon = system: COLO 205 colon
MCF7 breast = system: MCF7 breast
OVCAR-8 ovarian = system: OVCAR-8 ovarian
UO-31 renal = system: UO-31 renal
RXF 393 renal = system: RXF 393 renal
OVCAR-5 ovarian = system: OVCAR-5 ovarian
BT-549 breast = system: BT-549 breast
RPMI-8226 leukemia = system: RPMI-8226 leukemia

Structure (SMILES)	TGI (K-562 leukemia) [µM]	TGI (HCC-2998 colon) [µM]	TGI (COLO 205 colon) [µM]	TGI (MCF7 breast) [µM]	TGI (OVCAR-8 ovarian) [µM]	TGI (UO-31 renal) [µM]	TGI (RXF 393 renal) [µM]	TGI (OVCAR-5 ovarian) [µM]	TGI (BT-549 breast) [µM]	TGI (RPMI-8226 leukemia) [µM]
C/C(=C\COP(=O)(O)OP(=O)(O)O)CC/C=C(\C)CNc1c(F)c(F)c(F)c(F)c1F	> 100	> 100	> 100	> 100	> 100	> 100	> 100	> 100		
Cc1nc2nnc(CCCCCCCCc3nnc4nc(C)[nH]n34)n2[nH]1	> 100	> 100	> 100	> 100	> 100	> 100	> 100	> 100	> 100	
CCC(C)C(NC(=O)c1cccc2c(=O)c3ccccc3[nH]c12)C(=O)O (stereo not given)	> 100		> 100	> 100	> 100	> 100		> 100		> 100
Cc1csc(NCc2ccc(Cl)cc2)n1	> 100		63.1	> 100	> 100	> 100	79	> 100	> 100	> 100
Cc1cc2c3ccccc3n3c2c2c1OC1(C)CCC(C2C1)C3(C)C (stereo not given)	> 25	> 25	> 25		> 25	> 25		> 25		> 25
O=C(CC(C(=O)c1ccsc1)c1cccs1)c1cccs1 (stereo not given)	> 100	> 100	> 100		> 100	92.7	> 100	> 100		> 100
CC(=O)CC(O)(C(F)(F)Cl)C(F)(Cl)Cl (stereo not given)	> 10	> 10	> 10	> 10	> 10	> 10	> 10			
O=[N+]([O-])c1ccc(CSC2=C(c3ccc(Cl)cc3)S/C(=C3\SC(SCc4ccc([N+](=O)[O-])cc4)=C(c4ccc(Cl)cc4)S3)S2)cc1	> 100	> 100	> 100	> 100	> 100		> 100	> 100	> 100	
CCCNC(=O)c1cc(OC)c(OC)cc1NC(=O)C12CC3CC(CC(C3)C1)C2	> 100		56.6	64.2	66.6	30.1	19.3	36.6	31.9	92.7
c1cc(CSP234N5CCN2CCN3CCN4CC5)cc(CSP234N5CCN2CCN3CCN4CC5)c1	> 100	57.5	49.9	68.6	41.9	39.3		> 100	51.6	> 100
CCCCCCCC(=O)NC(C)(C)C(=O)NCC(=O)NC(CC(C)C)C(=O)NC(C)(C)C(=O)NCC(=O)NCC(=O)NC(CC(C)C)C(=O)NC(C)(C)C(=O)NCC(=O)NC(C(=O)NC(CO)CC(C)C)C(C)CC (stereo not given)	9.11	7.71	7.18		7.62	7.93	7.97	6.94	6.87	4.27
CCN(CC)C(=O)Cc1[nH][nH]c(=O)c1C(=O)N(CC)CC	> 100	> 100	> 100		> 100	> 100	> 100			> 100
C(/C=C(\Nc1ccccc1)c1ccc2ccccc2c1)=Nc1ccccc1	4.22		4.1	15.7	14.1	15.8	7.41	9.86	4.6	5.67
CCOC(=O)CN(CC)C(=O)NC12CC3CC(CC(C3)C1)C2	683	700	270	461	> 750	389	509	545		454
O=C1C=C2SC3C[C@@]24CC1(O)[N+]1=c2c4c(c(O)c4c2=C(C=N4)CC1)N3	2.72		0.332	0.972	3.63	3.48	2.71	3.8		1.62
O=C(Cn1c(=O)oc2ccccc21)N(c1ccccc1)c1ccccc1	> 100		> 100	> 100	> 100	> 100	> 100	> 100	> 100	> 100
Cc1[nH]c2c(C)c3c([nH]c4ccc(Cl)cc43)c(C)c2c(=O)c1C	> 100	16.5	18.8	6.9	17.7	38.9		12.4	> 100	24.9
O=C(OC[C@H]1C[C@H]2C(=O)OCCC[C@H]2O1)c1ccccc1	> 100		> 100	> 100	> 100	> 100		> 100		> 100
Cc1n[nH]c(=O)c2c3c([nH]c12)-c1ccccc1C3	> 100		> 100	> 100	> 100	> 100	> 100	> 100	> 100	> 100
C1CCC(CC2CCC(NC3=NCCO3)CC2)CC1 (stereo not given)	32.9	37.1	28.2	32.1	30.9	35.9	36.6	53.6		55.9
CCOC(=O)c1c(NS(=O)(=O)c2ccccc2)sc2c1CCCC2	> 100		> 100	> 100	> 100	> 100	> 100	> 100	> 100	> 100
O=C1OCOC2(CCCC2)C1c1ccccc1 (stereo not given)	> 100	> 100	> 100		> 100	> 100	> 100	> 100		> 100
O=[N+]([O-])c1ccc(N=P(c2ccccc2)(c2ccccc2)c2ccccc2)n2nnnc12	> 100		> 100		> 100	> 100	> 100	> 100		> 100
